These results are taken from ChEMBL document CHEMBL5052848, “Atf6 modulators and uses thereof” (2021).

Holding throughout (type): cell-based
Assay [1] concerns U2OS. Description: Modulation of ATF6 activity in human U2OS cells at 1 uM in presence of ER stress inducer thapsigargin (Tg) measured by TRE-luciferase reporter assay relative to control.
For assay [2], the system named is U2OS. Briefly: Modulation of ATF6 activity in human U2OS cells at 10 uM in presence of ER stress inducer thapsigargin (Tg) measured by TRE-luciferase reporter assay relative to control.
In assay [3] the test system is U2OS. Briefly: Modulation of ATF6 activity in human U2OS cells at 1 uM measured by TRE-luciferase reporter assay relative to control. On the technique in general: Reporter assays use an easily measured gene product as a stand-in for the process of interest.
Assay [4] concerns U2OS. Briefly: Modulation of ATF6 activity in human U2OS cells at 10 uM measured by TRE-luciferase reporter assay relative to control.

For the molecule `CC(c1c(Cl)cccc1Cl)n1cc(NC(=O)c2cc(-c3ccco3)on2)cn1` (stereo unspecified), the Activity is above 150% in the assay on U2OS [1] (filed as activator), above 150% in the assay on U2OS [2] (filed as activator), 0% in the assay with U2OS [3] and 0% in the assay with U2OS [4].
In the case of `CC(c1c(Cl)cccc1Cl)n1cc(NC(=O)c2cc(-c3cccs3)on2)cn1` (stereo unspecified), the Activity stood at 75% in the assay with U2OS [1], 100% with U2OS [2] (filed as activator), 0% in the assay on U2OS [3] and 0% with U2OS [4].
For the molecule `CC(c1ccc(F)cc1Cl)n1cc(NC(=O)c2cc(-c3ccco3)on2)cn1` (stereo unspecified), the Activity was found to be 100% with U2OS [1] (filed as activator) and 75% with U2OS [2].
In the case of `Cc1c(NC(=O)c2cc(-c3ccco3)on2)cnn1C(C)c1c(F)cccc1Cl` (stereo unspecified), the Activity came to 75% in the assay on U2OS [1], 100% in the assay with U2OS [2] (filed as activator), 0% in the assay with U2OS [3] and 0% in the assay with U2OS [4].
Take `O=C(Nc1cnn(C2CCCc3ccccc32)c1)c1cc(-c2ccco2)on1` (stereo unspecified): the Activity with U2OS [1] (filed as activator) was determined as 100%; in the assay with U2OS [2] (filed as activator), 125%.
On to `O=C(Nc1cnn(C2CCc3cc(C(F)(F)F)ccc32)c1)c1cc(-c2cnccn2)on1` (stereo unspecified), for which the Activity in the assay with U2OS [1] and in the assay with U2OS [2] was 75% throughout.
As for `O=C(Nc1cnn(Cc2ccc(C(F)(F)F)cc2)c1)c1cc(-c2ccco2)on1`, the Activity with U2OS [1] (filed as activator) came to 100%; in the assay on U2OS [2] it was 75%.
In the case of `O=C(Nc1cnn(Cc2ccc(C(F)(F)F)cc2C(F)(F)F)c1)c1cc(-c2ccco2)on1`, the Activity with U2OS [1] and with U2OS [2] was below 50% throughout.
Take `O=C(Nc1cnn(Cc2ccccc2)c1)c1cc(-c2ccco2)on1`: the Activity in the assay with U2OS [1] (filed as activator) was determined as 100%; with U2OS [2] (filed as activator), 125%.
Turning to `CC(c1c(Cl)cccc1Cl)n1cc(NC(=O)c2cc(-c3ccco3)on2)cn1` (single isomer, unassigned), the Activity in the assay on U2OS [1] (filed as activator) was 125%; with U2OS [2] (filed as activator), 100%.
For `O=C(Nc1cnn(C2CCc3cc(Cl)ccc32)c1)c1cc(-c2ccco2)on1` (single isomer, unassigned; enantiomer A), the Activity with U2OS [1] was 75%; with U2OS [2], below 50%.
For `O=C(Nc1cnn(C2CCc3cc(Cl)ccc32)c1)c1cc(-c2ccco2)on1` (single isomer, unassigned; enantiomer B), in that order: 75% and 75%.
For the molecule `CC(c1c(F)cccc1Cl)n1cc(NC(=O)c2cc(-c3ccco3)on2)cn1` (stereo in doubt; 1-4), the Activity in the assay with U2OS [1] (filed as activator) and in the assay on U2OS [2] (filed as activator) was above 150% in each case.
In the case of `CC(c1ccc(F)cc1F)n1cc(NC(=O)c2cc(-c3ccco3)on2)cn1` (stereo in doubt; 1-5), the Activity is 100% in the assay on U2OS [1] (filed as activator) and above 150% in the assay with U2OS [2] (filed as activator).
`CC(c1ccc(C(F)(F)F)cc1C(F)(F)F)n1cc(NC(=O)c2cc(-c3cnccn3)no2)cn1` (stereo in doubt; 1-11): the figures for the Activity with U2OS [1] and in the assay with U2OS [2] were 50% and below 50%, respectively.
Take `CC(c1c(F)cccc1Cl)n1cc(NC(=O)c2cc(-c3ccco3)on2)cn1` (stereo in doubt; 1-14): the Activity in the assay with U2OS [1] (filed as activator) is above 150%; in the assay with U2OS [2] (filed as activator) it was above 150%; with U2OS [3], 0%; in the assay on U2OS [4], 0%.
As to `CC(c1c(F)cccc1Cl)n1cc(NC(=O)c2cc(-c3ccco3)on2)cn1` (stereo in doubt; 1-15), the Activity came to 100% in the assay on U2OS [1] (filed as activator), 100% with U2OS [2] (filed as activator), 0% with U2OS [3] and 0% with U2OS [4].
With `CC(c1ccc(F)cc1F)n1cc(NC(=O)c2cc(-c3ccco3)on2)cn1` (stereo in doubt; 1-16), the Activity turned out to be 100% in the assay on U2OS [1] (filed as activator), 125% in the assay on U2OS [2] (filed as activator), 0% in the assay on U2OS [3] and 0% with U2OS [4].
On to `CC(c1ccc(F)cc1F)n1cc(NC(=O)c2cc(-c3ccco3)on2)cn1` (stereo in doubt; 1-17), for which the Activity was determined as 100% in the assay on U2OS [1] (filed as activator), 100% in the assay with U2OS [2] (filed as activator), 0% with U2OS [3] and 0% in the assay on U2OS [4].
Regarding `CC(c1ccc(C(F)(F)F)cc1C(F)(F)F)n1cc(NC(=O)c2cc(-c3cnccn3)no2)cn1` (stereo in doubt; 1-25), the Activity with U2OS [1] and in the assay on U2OS [2] was 75% in each case.
For `CC(c1ccc(C(F)(F)F)cc1C(F)(F)F)n1cc(NC(=O)c2cc(-c3cnccn3)no2)cn1` (stereo in doubt; 1-26), the Activity in the assay with U2OS [1] and with U2OS [2] was below 50% each time.
